Source: CN111004186A, “一种小分子荧光探针及其制备方法与应用” (Wenzhou Medical University, priority 2019, dated 2020)

What was measured:
[1] = UV-vis absorption spectra of the probe on addition of ClO-; details: aqueous solution, probe 10 μM and 5 μM, ClO- added
[2] = Fluorescence titration of the probe with ClO-; details: excitation 440 nm
[3] = Fluorescence selectivity of the probe for ClO- over other ions/species
[4] = tested on: MRC-5 cells (人胚肺细胞(MRC-5)); test: Fluorescence bioimaging of ClO- in MRC-5 cells; format: cell-based, human
zebrafish (斑马鱼) = test: Fluorescence bioimaging of ClO- in zebrafish; format: in vivo

SMILES: O=C1NC(=S)NC(=O)C1=Cc1ccc2cc(O)ccc2c1 [小分子探针]
- absorption band at 440 nm on addition of ClO- [1]: 逐渐减少
- new absorption peak after addition of ClO- [1]: 515 nm
- maximum emission ([2]; probe 5 μM in water with ClO-): 535 nm
- fluorescence intensity as a function of ClO- concentration ([2]; probe 5 μM in water, 400-700 nm): 随ClO-浓度增加而增强
- fluorescence change with anions/species other than ClO- ([3]; probe 2 μM in EtOH-H2O (v/v=1:10), 1.0 eq SO3 2-, NO, 1O2, ·OH, PBO·, TBHP, DBTP, Cys, GSH, H2O2): 没有产生明显变化
- fluorescence intensity after addition of ClO- ([3]; probe 2 μM in EtOH-H2O (v/v=1:10), ClO- 1.0 eq): 明显
- selectivity for ClO- ([3]; probe 2 μM in EtOH-H2O (v/v=1:10), anions 1.0 eq): 高选择性
- fluorescence change with other ions ([3]; probe mixed with other ions (not hypochlorite)): 荧光基本上不发生变化
- fluorescence intensity on reaction with hypochlorite ion ([3]; probe with hypochlorite ion): 荧光强度变强
- fluorescence signal in cells ([4]; MRC-5 cells incubated with free probe, without added ClO-): 观察到可见荧光信号
- fluorescence intensity in the red channel ([4]; MRC-5 cells incubated with probe 20 min, then ClO- 6.0 μM, observed immediately): 显着荧光强度
- red fluorescence in head and abdomen (zebrafish (斑马鱼); 5-day-old zebrafish pretreated with probe, washed three times, then ClO- 6.0 μM): 显着的红色荧光
- red fluorescence in the abdomen (zebrafish (斑马鱼); 5-day-old zebrafish, free probe 2.0 μM, 20 min, without added ClO-): 弱而可见的 红色荧光
- tissue penetration ability (zebrafish (斑马鱼); zebrafish): 高组织穿透能力
